The record followed here is US10730887B2, “Compound containing tricyclic heteroaryl group” (Hangzhou Innogate Pharma Co., Ltd., priority 2016, dated 2020).

What all share (assay type): biochemical
The target of assay [1] is SYK (Homo sapiens, UniProt P43405). In words: Syk kinase activity inhibition, Caliper mobility shift assay. How it is done:
SYK protein kinase activity was determined using the Caliper mobility shift assay. The compound was dissolved in DMSO and diluted with kinase buffer (20 mM HEPES, 0.01% Triton X-100, 5 mM MgCl2, 1 mM MnCl2, 2 mM DTT), and 5 μL of 5 times final concentration was added to the 384-well plate Compound (10% DMSO). After adding 10 μL of 2.5-fold enzyme (with SYK) solution, incubate for 10 minutes at room temperature, and then add 10 μL of 2.5-fold substrate (Peptide FAM-P22 and ATP) solution. Incubate at 28° C. for 30 minutes, then stop the reaction by adding 25 μL of stop solution (100 mM HEPES, 0.015% Brij-35, 0.2% Coating Reagent #13, 50 mM EDTA, pH 7.5). Conversion rate data was read on a Caliper EZ Reader II (Caliper Life Sciences) The conversion rate was converted into inhibition rate data (% inhibition rate=(max−conversion rate)/(max−min)*100). Where max is the conversion of the DMSO control and min is the conversion of the enzyme-free control. Curves were plotted with compound concentration and inhibition rate on the horizontal and vertical coordinates, and the curve was fitted using XLFit excel add-in version 4.3.1 software and IC50 was calculated.

Assay [2] addresses Jak2 (Homo sapiens, UniProt O60674). In words: Jak2 kinase activity inhibition, Caliper Reader. As for the experimental part:
Kinase JAk1 and Jak2 enzyme inhibition IC50 evaluation experiments: The buffer was configured with the following components: 50 mM HEPES, pH 7.5, 0.00015% Brij-35. Compounds were placed in a concentration gradient in 100% DMSO and diluted to 10% DMSO with buffer and added to 384 well plates. For example, when the initial concentration of the compound is […], it is made into 12.5 μM with 100% DMSO, and diluted by 5 or 6 concentrations, and then diluted 10-fold with buffer to prepare an intermediate dilution of the compound containing 10% DMSO. Transfer 5 μL, to 384-well plate. The Jak1 and Jak2 enzymes were diluted to the optimal concentration with the following buffer: 50 mM HEPES, pH 7.5, 0.00015% Brij-35, 2 mM DTT. Transfer 10 μL to a 384-well plate and incubate with the compound for 10-15 minutes. The substrate was diluted to the optimal concentration with the following buffer: 50 mM HEPES, pH 7.5, 0.00015% Brij-35, 10 mM MgCl2, adenosine triphosphate at Km. The reaction was initiated by adding 10 μL to a 384-well plate and reacted at 28° C. for 1 hour. The conversion rate was then read using a Caliper Reader and the inhibition rate was calculated. The formula is as follows: Percent inhibition=(max−conversion)/(max−min)*100. Where max is the conversion of the DMSO control and min is the conversion of the enzyme-free control. Fit the IC50 value with XLFit excel add-in version 5.4.0.8. Fitting formula: Y=Bottom+(Top−Bottom)/(1+(IC50/X)^HillSlope).

In assay [3] the target is EGFR (T790M/L858R) (Homo sapiens, UniProt P00533, L858R/T790M). In words: EGFR (T790M/L858R) kinase activity inhibition, Caliper mobility shift assay. As for the experimental part:
(§1) EGFR and EGFR (T790M/L858R) protein kinase activities were determined using the Caliper mobility shift assay. The compound was dissolved in DMSO and diluted with kinase buffer (EGFR (T790M/L858R): 50 mM HEPES at pH 7.5, 0.0015% Brij-35, 10 mM MgCl2, 2 mM DTT; EGFR: pH 7.5 50 mM HEPES, 0.0015% Brij-35, 10 mM MgCl2, 10 mM MnCl2, 2 mM DTT), 5 μL of 5 times the final concentration of the compound (10% DMSO) was added to a 384-well plate. Add 10 μL of 2.5-fold enzyme (using EGFR and EGFR (1790M/L858R), respectively) and incubate for 10 minutes at room temperature, then add 10 μL of 2.5-fold substrate (Peptide FAM-P22 and ATP) solution. After incubation at 28° C. for 60 minutes, the reaction was stopped by adding 25 μL of stop solution (100 mM HEPES, 0.015% Brij-35, 0.2% Coating Reagent #3, 50 mM EDTA, pH 7.5). Conversion rate data was read on a Caliper EZ Reader II (Caliper Life Sciences). The conversion rate was converted into inhibition rate data (% inhibition rate=(max−conversion rate)/(max−min)*100). Where max is the conversion of the DMSO control and min is the conversion of the enzyme-free control Curves were plotted with compound concentration and inhibition rate on the horizontal and vertical coordinates, and the curve was fitted using XLFit excel add-in version 4.3.1 software and IC50 was calculated.

The target in assay [4] is EGFR (Homo sapiens, UniProt P00533). In words: EGFR kinase activity inhibition, Caliper mobility shift assay. As for the experimental part:
as §1

Chain of EGFR (P00533 25-1210): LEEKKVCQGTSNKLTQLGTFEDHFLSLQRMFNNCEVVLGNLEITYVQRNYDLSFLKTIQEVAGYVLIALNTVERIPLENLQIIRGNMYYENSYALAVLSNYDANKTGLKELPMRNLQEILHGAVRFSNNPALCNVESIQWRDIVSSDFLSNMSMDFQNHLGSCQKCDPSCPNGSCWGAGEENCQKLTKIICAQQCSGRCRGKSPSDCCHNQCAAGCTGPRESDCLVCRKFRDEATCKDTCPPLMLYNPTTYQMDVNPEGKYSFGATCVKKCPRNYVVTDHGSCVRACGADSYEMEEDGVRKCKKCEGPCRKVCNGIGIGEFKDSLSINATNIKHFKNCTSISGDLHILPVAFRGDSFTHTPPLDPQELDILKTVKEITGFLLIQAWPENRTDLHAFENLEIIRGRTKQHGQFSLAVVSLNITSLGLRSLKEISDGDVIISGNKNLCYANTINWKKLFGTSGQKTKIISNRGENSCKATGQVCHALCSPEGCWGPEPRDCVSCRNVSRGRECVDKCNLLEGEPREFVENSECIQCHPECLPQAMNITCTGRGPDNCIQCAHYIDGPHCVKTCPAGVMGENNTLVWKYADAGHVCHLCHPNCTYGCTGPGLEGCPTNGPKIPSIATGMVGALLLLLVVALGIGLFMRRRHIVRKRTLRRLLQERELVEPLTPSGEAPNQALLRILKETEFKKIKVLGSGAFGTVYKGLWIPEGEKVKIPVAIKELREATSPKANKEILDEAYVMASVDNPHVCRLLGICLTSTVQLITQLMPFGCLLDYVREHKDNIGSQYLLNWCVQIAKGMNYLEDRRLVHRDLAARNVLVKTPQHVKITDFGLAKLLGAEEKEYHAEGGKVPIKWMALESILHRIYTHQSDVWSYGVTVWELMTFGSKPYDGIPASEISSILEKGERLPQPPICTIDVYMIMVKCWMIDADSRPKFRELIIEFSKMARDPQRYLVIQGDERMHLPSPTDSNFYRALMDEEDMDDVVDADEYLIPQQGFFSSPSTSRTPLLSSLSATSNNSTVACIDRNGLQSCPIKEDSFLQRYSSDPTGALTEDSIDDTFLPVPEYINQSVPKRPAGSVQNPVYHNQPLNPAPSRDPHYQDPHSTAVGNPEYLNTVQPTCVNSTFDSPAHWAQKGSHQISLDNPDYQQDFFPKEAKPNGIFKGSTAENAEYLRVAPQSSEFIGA
Chain of EGFR (T790M/L858R) (P00533 25-1210 T790M/L858R): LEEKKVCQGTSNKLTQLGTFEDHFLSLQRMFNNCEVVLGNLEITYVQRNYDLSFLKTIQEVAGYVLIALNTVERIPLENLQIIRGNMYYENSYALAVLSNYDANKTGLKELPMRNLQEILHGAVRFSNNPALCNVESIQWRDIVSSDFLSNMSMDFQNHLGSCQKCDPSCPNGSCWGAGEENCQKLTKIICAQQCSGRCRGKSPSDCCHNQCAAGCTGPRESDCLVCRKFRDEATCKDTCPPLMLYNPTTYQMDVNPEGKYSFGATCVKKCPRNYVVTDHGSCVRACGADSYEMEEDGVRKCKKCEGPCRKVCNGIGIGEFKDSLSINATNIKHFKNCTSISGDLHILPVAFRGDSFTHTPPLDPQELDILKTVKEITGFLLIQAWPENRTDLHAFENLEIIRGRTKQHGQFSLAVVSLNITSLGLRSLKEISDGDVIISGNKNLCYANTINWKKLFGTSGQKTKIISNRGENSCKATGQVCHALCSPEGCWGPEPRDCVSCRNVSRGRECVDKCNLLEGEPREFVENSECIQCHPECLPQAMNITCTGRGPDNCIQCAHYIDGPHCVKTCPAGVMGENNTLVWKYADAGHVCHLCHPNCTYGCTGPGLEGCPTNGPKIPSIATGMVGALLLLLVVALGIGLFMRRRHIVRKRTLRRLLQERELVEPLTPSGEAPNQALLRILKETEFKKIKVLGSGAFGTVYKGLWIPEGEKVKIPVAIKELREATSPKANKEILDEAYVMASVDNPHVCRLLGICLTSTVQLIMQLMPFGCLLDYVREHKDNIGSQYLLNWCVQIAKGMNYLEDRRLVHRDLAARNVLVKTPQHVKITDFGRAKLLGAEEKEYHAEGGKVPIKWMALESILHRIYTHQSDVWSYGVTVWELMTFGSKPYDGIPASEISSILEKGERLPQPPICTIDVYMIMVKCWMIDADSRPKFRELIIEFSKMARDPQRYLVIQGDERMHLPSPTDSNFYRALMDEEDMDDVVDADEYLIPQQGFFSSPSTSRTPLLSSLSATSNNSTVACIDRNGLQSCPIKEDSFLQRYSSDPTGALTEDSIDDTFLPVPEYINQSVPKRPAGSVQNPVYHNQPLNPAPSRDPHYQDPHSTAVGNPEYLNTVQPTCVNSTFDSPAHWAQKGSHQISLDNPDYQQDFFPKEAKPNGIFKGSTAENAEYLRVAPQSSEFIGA
Chain of Jak2 (O60674 whole entry, species assumed): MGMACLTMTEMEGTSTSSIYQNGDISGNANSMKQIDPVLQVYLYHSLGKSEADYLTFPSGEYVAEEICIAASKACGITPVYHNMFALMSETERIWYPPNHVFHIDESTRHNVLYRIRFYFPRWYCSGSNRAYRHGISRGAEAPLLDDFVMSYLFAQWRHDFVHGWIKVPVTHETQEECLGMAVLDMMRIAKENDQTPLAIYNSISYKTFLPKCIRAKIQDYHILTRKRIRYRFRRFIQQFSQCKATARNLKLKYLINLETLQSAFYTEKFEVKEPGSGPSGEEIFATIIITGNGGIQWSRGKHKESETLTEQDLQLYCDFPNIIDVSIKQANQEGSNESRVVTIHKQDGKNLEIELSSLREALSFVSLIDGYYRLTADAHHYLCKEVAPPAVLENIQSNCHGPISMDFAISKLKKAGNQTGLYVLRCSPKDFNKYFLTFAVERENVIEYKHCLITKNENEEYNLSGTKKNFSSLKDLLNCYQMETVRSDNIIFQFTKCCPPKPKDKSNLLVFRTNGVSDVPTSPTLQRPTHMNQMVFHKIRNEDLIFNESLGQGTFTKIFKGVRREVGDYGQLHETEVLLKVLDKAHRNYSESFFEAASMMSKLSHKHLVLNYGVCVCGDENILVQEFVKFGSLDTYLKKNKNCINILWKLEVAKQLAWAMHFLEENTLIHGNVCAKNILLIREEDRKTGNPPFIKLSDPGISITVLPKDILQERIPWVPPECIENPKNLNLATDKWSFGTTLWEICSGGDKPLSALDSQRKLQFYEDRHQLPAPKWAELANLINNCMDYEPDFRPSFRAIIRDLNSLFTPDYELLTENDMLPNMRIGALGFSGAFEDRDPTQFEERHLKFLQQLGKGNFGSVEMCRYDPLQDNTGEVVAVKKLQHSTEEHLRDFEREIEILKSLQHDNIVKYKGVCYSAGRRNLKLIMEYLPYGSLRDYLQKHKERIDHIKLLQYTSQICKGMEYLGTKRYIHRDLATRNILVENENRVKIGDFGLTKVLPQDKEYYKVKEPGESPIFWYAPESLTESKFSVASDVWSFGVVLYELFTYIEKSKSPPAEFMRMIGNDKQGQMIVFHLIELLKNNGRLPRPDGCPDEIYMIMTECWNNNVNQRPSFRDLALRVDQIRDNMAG

As to `CN(C)S(=O)(=O)N1CCN2c3ccc(Nc4ncc(C(N)=O)c(NC5CC5)n4)cc3OC[C@H]2C1` [Compound C14R], the half-inhibitory concentration (IC50) in assay [1] and in assay [2] was less than 0.01 µM in each case.
In the case of `CN1CCN2c3ccc(Nc4ncc(C(N)=O)c(NC5CC5)n4)cc3C(=O)CC2C1` (stereo not drawn) [Compound C17], the IC50 in assay [1] and in assay [2] was less than 0.05 µM in each case.
For the compound `C=CC(=O)Nc1cccc(Nc2nc(Nc3ccc4c(c3)OC[C@H]3CNCCN43)ncc2C(F)(F)F)c1` [Compound A3R], the half-maximal inhibitory concentration (IC50) in assay [3] is less than 0.001 µM; in assay [4], less than 0.05 µM.
In the same order, the values of `C=CC(=O)Nc1cccc(Nc2nc(Nc3ccc4c(c3)OC[C@H]3CN(C(C)=O)CCN43)ncc2C(F)(F)F)c1` [Compound A2R] are less than 0.01 µM and less than 0.1 µM.
Take `C=CC(=O)Nc1cccc(Nc2nc(Nc3ccc4c(c3)OC[C@H]3CN(CC(F)(F)F)CCN43)ncc2C(F)(F)F)c1` [Compound A7R]: the figures for the concentration for half-maximal inhibition (IC50) in assay [3] and in assay [4] were less than 0.05 µM and less than 0.5 µM, respectively.
Consider `C=CC(=O)Nc1cccc(Nc2nc(Nc3ccc4c(c3)OC[C@H]3COCCN43)ncc2C(F)(F)F)c1` [Compound A8R], for which the values for the concentration for half-maximal inhibition (IC50) in assay [3] and in assay [4] were less than 0.01 µM and less than 0.1 µM, respectively.
Take `CS(=O)(=O)N1CCN2c3ccc(Nc4ncc(C(N)=O)c(NC5CC5)n4)cc3OC[C@H]2C1` [Compound C11R]: the 50% inhibitory concentration (IC50) in assay [1] and in assay [2] was less than 0.01 µM each time.
As for `C=CC(=O)Nc1cccc(Nc2nc(Nc3ccc4c(c3)OC[C@@H]3CN(C(C)=O)CCN43)ncc2C(F)(F)F)c1` [Compound A2S], the IC50 in assay [3] is less than 0.01 µM; in assay [4] it was less than 0.1 µM.
On to `CC(C)S(=O)(=O)N1CCN2c3ccc(Nc4ncc(C(N)=O)c(NC5CC5)n4)cc3OC[C@H]2C1` [Compound C12R], for which the IC50 in assay [1] and in assay [2] was less than 0.01 µM each time.
Turning to `NC(=O)c1cnc(Nc2ccc3c(c2)OC[C@H]2CNCCN32)nc1NC1CC1` [Compound C8R], the half-inhibitory concentration (IC50) is less than 0.05 µM in assay [1] and less than 0.01 µM in assay [2].
Regarding `C=CC(=O)Nc1cccc(Nc2nc(Nc3ccc4c(c3)OC[C@H]3CN(C5CC5)CCN43)ncc2C(F)(F)F)c1` [Compound A6R], the half-maximal inhibitory concentration (IC50) in assay [3] was less than 0.01 µM; in assay [4] it was less than 0.1 µM.
On to `CC(C)(C)OC(=O)N1CCN2c3ccc(Nc4ncc(C(N)=O)c(NC5CC5)n4)cc3OC[C@H]2C1` [Compound C7R], for which the IC50 in assay [1] and in assay [2] was less than 0.05 µM in each case.
For the compound `NC(=O)c1cnc(Nc2ccc3c(c2)OC[C@H]2CN(S(N)(=O)=O)CCN32)nc1NC1CC1` [Compound C16R], the half-inhibitory concentration (IC50) in assay [1] and in assay [2] was less than 0.05 µM throughout.
As to `C=CC(=O)Nc1cccc(Nc2nc(Nc3ccc4c(c3)OCC3CN(C)CCN43)ncc2C(F)(F)F)c1` (stereo not drawn) [Compound A1], the IC50 in assay [3] is less than 0.01 µM; in assay [4], less than 0.1 µM.
For `C=CC(=O)Nc1cccc(Nc2nc(Nc3ccc4c(c3)OC[C@@H]3CNCCN43)ncc2C(F)(F)F)c1` [Compound A3S], the IC50 in assay [3] was less than 0.001 µM.
Regarding `NC(=O)c1cnc(Nc2ccc3c(c2)OCC2COCCN32)nc1NC1CC1` (stereo not drawn) [Compound C18R], the concentration for half-maximal inhibition (IC50) in assay [1] and in assay [2] was less than 0.05 µM in each case.
On to `NC(=O)c1cnc(Nc2ccc3c(c2)OC[C@H]2CN(S(=O)(=O)C4CCOCC4)CCN32)nc1NC1CC1` [Compound C13R], for which the IC50 in assay [1] and in assay [2] was less than 0.01 µM in each case.
As to `C=CC(=O)Nc1cccc(Nc2nc(Nc3ccc4c(c3)OC[C@H]3CN(C(=O)C(F)(F)F)CCN43)ncc2C(F)(F)F)c1` [Compound A4R], the IC50 in assay [3] was less than 0.01 µM; in assay [4], less than 0.1 µM.
In the same order, the values of `C=CC(=O)Nc1cccc(Nc2nc(Nc3ccc4c(c3)OC[C@H]3CN(C)CCN43)ncc2C(F)(F)F)c1` [Compound A1R] are less than 0.001 µM and less than 0.1 µM.
Consider `C=CC(=O)Nc1cccc(Nc2nc(Nc3ccc4c(c3)OC[C@H]3CN(CC)CCN43)ncc2C(F)(F)F)c1` [Compound A5R], for which the IC50 in assay [3] was less than 0.001 µM; in assay [4], less than 0.1 µM.
`C=CS(=O)(=O)N1CCN2c3ccc(Nc4ncc(C(N)=O)c(NC5CC5)n4)cc3OC[C@H]2C1` [Compound C15R]: the half-inhibitory concentration (IC50) in assay [1] and in assay [2] was less than 0.05 µM in each case.
For `C=CC(=O)Nc1cccc(Nc2nc(Nc3ccc4c(c3)OC[C@H]3CN(C)CC(=O)N43)ncc2C(F)(F)F)c1` [Compound A9R], the IC50 is less than 0.01 µM in assay [3] and less than 0.1 µM in assay [4].
`C=CC(=O)Nc1cccc(Nc2nc(Nc3ccc4c(c3)OC[C@@H]3COCCN43)ncc2C(F)(F)F)c1` [Compound A8S]: the concentration for half-maximal inhibition (IC50) was less than 0.01 µM in assay [3] and less than 0.1 µM in assay [4].
As to `NC(=O)c1cnc(Nc2ccc3c(c2)OC[C@H]2CN(S(=O)(=O)c4ccccc4)CCN32)nc1NC1CC1` [Compound C9R], the values for the 50% inhibitory concentration (IC50) in assay [1] and in assay [2] were less than 0.01 µM and less than 0.05 µM, respectively.
For the compound `C=CC(=O)Nc1cccc(Nc2nc(Nc3ccc4c(c3)OC[C@@H]3CN(C)CCN43)ncc2C(F)(F)F)c1` [Compound A1S], the IC50 in assay [3] was less than 0.001 µM; in assay [4], less than 0.1 µM.
In the same order, the values of `C=CC(=O)Nc1cccc(Nc2nc(Nc3ccc4c(c3)OC[C@@H]3CN(C)CC(=O)N43)ncc2C(F)(F)F)c1` [Compound A9S] are less than 0.01 µM and less than 0.1 µM.
